# Tests used:
# S1P1 receptor = S1P1 receptor (Homo sapiens, UniProt P21453); assay: 35S-GTPyS binding assay; assay type: biochemical; conditions: membranes, 90 min at room temperature
# Procedure: The effect of the compounds was measured using a 35S-GTPyS binding assay. Briefly, membranes were incubated in a buffer containing 20 mM HEPES pH 7.4, 100 mM NaCl, 10 mM MgCl2, 10µM GDP, 50µg/ml saponin and 0.2% fatty acid-free BSA at various concentrations (0.1nM-10µM) and 0.1nM 35S-GTPyS. 10µM […] was used as 100% maximum efficacy. The assay was incubated for 90 min at room temperature with gentle mixing, and terminated by filtrating the reaction mixture through GF/C filter plates using the Manifold Filtration System. The filters were immediately washed with sodium phosphate pH 7.4 buffers. After drying the filter plates scintillant liquid were added to each well and 35S-GTPyS binding was measured on a Trilux Scintillation Counter.
# [1] = Acute hepatotoxicity assay: plasma liver markers (ALT, AST, TBIL) in mice; assay type: in vivo, Swiss mice; conditions: for ALT / AST / TBil: plasma, 24 h after single intraperitoneal administration; for hepatotoxicity: single intraperitoneal administration, liver markers 24 h later, compared to vehicle-treated group
# Procedure: Acute hepatotoxicity assays were performed in Swiss mice. Animals received a single administration of either vehicle, or Fingolimod or a compound of the present invention (compounds from the list indicated previously) by intraperitoneal route. Twenty-four hours later, animals were sacrificed and the levels of liver markers ALT (alanine aminotransferase), AST (aspartate aminotransferase), and TBIL (total bilirubin) in plasma were determined. An increase in liver markers in this model indicates the potential of that compound to cause liver toxicity in humans at lower doses following longer exposures. Table 2: Plasma levels of liver markers of mice 24 h after treatment with either vehicle or test compounds No.142, No.171 or fingolimod.
# in vivo = conditions: Wistar, rat, iv, 1 mg/kg
# Procedure: Rats were administered with 1 mg/kg of test compounds by intraveneous route to Wistar rats. Blood samples were collected from retroorbital plexus at several time points after administration and plasma levels of compounds were quantified by MS-HPLC.
# lymphocytes in blood = assay: Recovery of lymphopenia in rats after a single oral administration; assay type: in vivo; conditions: Wistar rats, single oral dose that caused maximal lymphopenia
# Procedure: Test compounds were administered by oral route to Wistar rats at a dose of each compound that caused maximal lymphopenia. At several times after administration, animals were anestesized and blood extracted from retroorbital plexus and collected into heparinized tubes. Total lymphocyte numbers were determined using a Sysmex K-800 haemocytometer. [formula]
# S1P1 receptor, sequence (P21453 whole entry): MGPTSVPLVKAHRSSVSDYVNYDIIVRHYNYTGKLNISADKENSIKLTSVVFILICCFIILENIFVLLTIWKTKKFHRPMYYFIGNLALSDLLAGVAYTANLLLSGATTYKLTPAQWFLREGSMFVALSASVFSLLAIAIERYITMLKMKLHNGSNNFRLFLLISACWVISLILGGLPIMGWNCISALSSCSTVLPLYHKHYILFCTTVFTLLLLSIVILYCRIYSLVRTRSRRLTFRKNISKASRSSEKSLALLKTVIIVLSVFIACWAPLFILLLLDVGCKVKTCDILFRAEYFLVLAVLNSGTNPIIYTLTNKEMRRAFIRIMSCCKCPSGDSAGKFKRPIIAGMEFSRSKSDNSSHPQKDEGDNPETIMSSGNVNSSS
Compound,EC50 (S1P1 receptor) [nM],ALT ([1]; 100 mg/kg) [IU/L],AST ([1]; 100 mg/kg) [IU/L],TBil ([1]; 100 mg/kg) [mg/dL],hepatotoxicity [1],AUC(0-t) (in vivo) [ng·h/mL],Cmax (in vivo) [ng/mL],Tmax (in vivo) [min],half-life (in vivo) [h],ALT ([1]; 30 mg/kg) [IU/L],AST ([1]; 30 mg/kg) [IU/L],TBil ([1]; 30 mg/kg) [mg/dL],time after administration to recover lymphocytes in blood (lymphocytes in blood) [h]
"Cc1cc(-c2noc(-c3nn(C)c4c3CCC(C)(C)C4)n2)cc(C)c1CCN1CCC(C(=O)O)CC1 [Compound 142, 1-(2-{2,6-dimethyl-4-[5-(1,6,6-trimethyl-4,5,6,7-tetrahydro-1H-indazol-3-yl)-1,2,4-oxadiazol-3-yl]phenyl}ethyl)piperidine-4-carboxylic acid]",8.7,45 ± 5,87 ± 9,0.3 ± 0.1,lack of hepatotoxicity,2630,824,6,3.5,,,,
"Cn1nc(-c2nc(-c3ccc(CCN4CCC(C(=O)O)CC4)c(C(F)(F)F)c3)no2)c2c1CC(C)(C)CC2 [Compound 171, 1-(2-{2-(trifluoromethyl)-4-[5-(1,6,6-trimethyl-4,5,6,7-tetrahydro-1H-indazol-3-yl)-1,2,4-oxadiazol-3-yl]phenyl}ethyl)piperidine-4-carboxylic acid]",18.8,42 ± 13,66 ± 7,0.5 ± 0.04,lack of hepatotoxicity,6230,986,6,8.2,,,,
"CCCCCCCCc1ccc(CCC(N)(CO)CO)cc1 [Fingolimod, reference compound]",,355 ± 60,589 ± 73,0.16 ± 0.02,high hepatotoxicity,279,50.5,6,26.1,59 ± 62,354 ± 70,0.12 ± 0.01,144

# — patent EP2455080A1, “S1P1 receptor agonists for use in the treatment of multiple sclerosis” (Almirall, S.A., priority 2010, dated 2012)
